Measured values published in patent publication US5239058A, “Proteins having anticoagulant properties” (Merck & Co., Inc., priority 1992, dated 1993).

Key:
Factor VIIa = Factor VIIa (Homo sapiens, UniProt P08709); test: Factor VIIa assay (release of 3H-activation peptide from human Factor X); assay type: biochemical; settings: 300-fold molar excess of TAP-1 over protease
Experimental: Assays were carried out at room temperature in 96-well microtiter plates. The color developed from the hydrolysis of peptide-nitroanilide substrates was monitored continuously at 405 nM on a Vmax machine (Molecular Devices). The concentration of Factor Xa was determined by active site titration. The concentrations of working solutions of the other proteases were determined spectrophotometrically using published extinction coefficients. The concentration of purified inhibitor was determined by quantitative amino acid analysis. […] In the case of human Factor Xa, the buffers also included 0.1% BSA; for S. aureus V8 protease the buffer was 50 mM NH4 HCo3. The substrates used were: Spectrozyme Xa (Factor Xa), S-2238 (thrombin), S-2356 (chymotrypsin), S-2366 (Factor XIa) Boc-AlaAla-Pro-Ala-pNA (elastase), Spectrozyme Pkal (kallikrein), Spectrozyme PL (plasmin), Spectrozyme UK (urokinase) Z-Phe-Leu-Glu-pNA (S. aureus V8 protease) and Spectrozyme tPA for tPA. […]
(§1) Because the TAP-1 was pre-incubated with the human Factor Xa to establish equilibrium in the absence of substrate, a value for the intrinsic Ki irrespective of the mechanism was calculated (solid line) using the equation for tight binding inhibition described in the article by Morrison, J. F. in Biochem. Biophys. […]

thrombin = target: T1, thrombin (Bos taurus, UniProt P00735); test: thrombin chromogenic enzyme assay (S-2238); assay type: biochemical, bovine; settings: 300-fold molar excess of TAP-1 over protease
T1 construct: responsible for the Factor Xa conversion of prothrombin to thrombin in vivo; purchased Calbiochem
Source text: (§2) Ornithodoros moubata ticks were obtained from South Africa through Antibody Associates, Inc. (Bedford, Tex.). Colorimetric substrates were purchased from Helena Labs, American Diagnostica, and Chemical Dynamics. Human Factor Xa was from Enzyme Research Laboratories. Human plasmin, urokinase, and bovine thrombin were from Calbiochem; bovine trypsin, chymotrypsin, and pancreatic elastase were from Worthington Enzymes, Inc. Plasma kallikrein, carboxypeptidase Y, S. aureus V8 protease and protease inhibitors were from Sigma. Two chain tPA was from American Diagnostica.
(§3) Assays were carried out at room temperature in 96-well microtiter plates. […] The concentration of Factor Xa was determined by active site titration. The concentrations of working solutions of the other proteases were determined spectrophotometrically using published extinction coefficients. The concentration of purified inhibitor was determined by quantitative amino acid analysis. […]
as §1

human Factor Xa = target: T2, human Factor Xa (Homo sapiens, UniProt P00742); test: Factor Xa chromogenic enzyme assay (Spectrozyme Xa); assay type: biochemical; settings: for Ki: inhibitor pre-incubated with human Factor Xa, tight binding equation, read-out: Ki for inhibition of Factor Xa
T2 construct: purchased Enzyme Research Laboratories
Experimental: Assays were carried out at room temperature in 96-well microtiter plates. The color developed from the hydrolysis of peptide-nitroanilide substrates was monitored continuously at 405 nM on a Vmax machine (Molecular Devices). The concentration of Factor Xa was determined by active site titration. The concentrations of working solutions of the other proteases were determined spectrophotometrically using published extinction coefficients. The concentration of purified inhibitor was determined by quantitative amino acid analysis. […] In the case of human Factor Xa, the buffers also included 0.1% BSA; for S. aureus V8 protease the buffer was 50 mM NH4 HCo3. The substrates used were: Spectrozyme Xa (Factor Xa), S-2238 (thrombin), S-2356 (chymotrypsin), S-2366 (Factor XIa) Boc-AlaAla-Pro-Ala-pNA (elastase), Spectrozyme Pkal (kallikrein), Spectrozyme PL (plasmin), Spectrozyme UK (urokinase) Z-Phe-Leu-Glu-pNA (S. aureus V8 protease) and Spectrozyme tPA for tPA. Factor VIIa was assayed by measuring the release of the ^3 H-activation peptide from human Factor X. For kinetic analyses, assays were carried for up to 10 min. followed by estimation of the initial rate where less than 5% of the added substrate was utilized.
Because the TAP-1 was pre-incubated with the human Factor Xa to establish equilibrium in the absence of substrate, a value for the intrinsic Ki irrespective of the mechanism was calculated (solid line) using the equation for tight binding inhibition described in the article by Morrison, J. F. in Biochem. Biophys. Acta 185,269 (1969). The effect on TAP-1 on various proteases also was tested.

trypsin = target: T3, trypsin (Bos taurus, UniProt P00760); test: trypsin chromogenic enzyme assay; assay type: biochemical, bovine; settings: 300-fold molar excess of TAP-1 over protease
T3 construct: purchased Worthington Enzymes, Inc
T3 sequence (P00760 24-246): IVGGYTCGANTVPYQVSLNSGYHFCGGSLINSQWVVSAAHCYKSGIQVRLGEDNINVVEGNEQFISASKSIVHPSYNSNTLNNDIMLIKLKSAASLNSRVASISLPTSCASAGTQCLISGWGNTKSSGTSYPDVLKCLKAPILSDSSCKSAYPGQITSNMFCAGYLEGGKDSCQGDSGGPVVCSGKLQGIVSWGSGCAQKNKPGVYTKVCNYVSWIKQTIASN
Source text: as §2, §3, §1

chymotrypsin = target: T4, chymotrypsin (Bos taurus, UniProt P00766); test: chymotrypsin chromogenic enzyme assay (S-2356); assay type: biochemical, bovine; settings: 300-fold molar excess of TAP-1 over protease
T4 construct: purchased Worthington Enzymes, Inc
Source text: as §2, §3, §1

S. aureus V8 protease = S. aureus V8 protease (Staphylococcus aureus, UniProt P0C1U8); settings: 300-fold molar excess of TAP-1 over protease
Source text: as §2, §3, §1

pancreatic elastase = target: T5, pancreatic elastase (Sus scrofa, UniProt P00772); test: elastase chromogenic enzyme assay (Boc-AlaAla-Pro-Ala-pNA); assay type: biochemical; settings: 300-fold molar excess of TAP-1 over protease
T5 construct: purchased Worthington Enzymes, Inc
Source text: as §2, §3, §1

Normal Human Plasma [1] = test: Prothrombin Time, plasma based clotting assay; assay type: biochemical
plasmin = target: T6, plasmin (Homo sapiens, UniProt P00747); test: plasmin chromogenic enzyme assay (Spectrozyme PL); assay type: biochemical; settings: 300-fold molar excess of TAP-1 over protease
T6 construct: Human plasmin, urokinase, and bovine thrombin were from Calbiochem; purchased Calbiochem
Source text: as §2, §3, §1

urokinase = target: T7, urokinase (Homo sapiens, UniProt P00749); test: urokinase chromogenic enzyme assay (Spectrozyme UK); assay type: biochemical; settings: 300-fold molar excess of TAP-1 over protease
T7 construct: purchased Calbiochem
Source text: as §2, §3, §1

Normal Human Plasma [2] = test: Modified Stypven Time, plasma based clotting assay; assay type: biochemical
Plasma kallikrein = target: T8, Plasma kallikrein (Homo sapiens, UniProt P03952); test: kallikrein chromogenic enzyme assay (Spectrozyme Pkal); assay type: biochemical; settings: 300-fold molar excess of TAP-1 over protease
T8 construct: purchased Sigma
Source text: as §2, §3, §1

Normal Human Plasma [3] = test: Activated Partial Thromboplastin Time, plasma based clotting assay; assay type: biochemical
[4] = test system: thromboplastin-induced clot formation; test: in vivo model of thromboplastin-induced clot formation (jugular vein); set-up: species or system rabbit; settings: rabbits, untreated 29.2±3.4%
Experimental: An in vivo model of thromboplastin-induced clot formation similar to Van Ryn-McKenna, et al., (1989) Thrombosis and Haemostasis 61:7-9 was used to determine the efficacy of the Factor Xa inhibitor recombinant TAP-1. Rabbits were pretreated with an infusion of recombinant TAP-1 for 60 minutes, at which time a segment of the jugular vein was isolated and occluded. Thromboplastin and whole blood withdrawn from the carotid artery were injected into the segment in order to induce clot formation. The jugular vein remained occluded for 30 minutes before the clot was removed and quantitated.

prothrombin time = prothrombin time in infused rabbits; assay type: in vivo, rabbit; settings: i.v. infusions of 7, 37 and 64 μg/kg/min
[5] = test system: activated partial thromboplastin time; test: activated partial thromboplastin time in infused rabbits; assay type: in vivo, rabbit; settings: i.v. infusions of 7, 37 and 64 μg/kg/min
[6] = 28.9 pMol TAP-1, Normal Human Plasma
[7] = 57.8 pMol TAP-1, Normal Human Plasma
[8] = 115 pMol TAP-1, Normal Human Plasma

T2 sequence (P00742 235-488 limits assumed): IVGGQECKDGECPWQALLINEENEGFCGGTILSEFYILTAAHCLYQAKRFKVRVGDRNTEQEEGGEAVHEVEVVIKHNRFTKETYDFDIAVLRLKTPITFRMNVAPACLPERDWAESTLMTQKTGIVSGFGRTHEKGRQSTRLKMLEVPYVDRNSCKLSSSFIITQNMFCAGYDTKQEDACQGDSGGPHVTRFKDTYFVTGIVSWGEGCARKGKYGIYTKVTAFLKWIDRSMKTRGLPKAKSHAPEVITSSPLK
T2 sequence (P00742 41-179 partner limits assumed): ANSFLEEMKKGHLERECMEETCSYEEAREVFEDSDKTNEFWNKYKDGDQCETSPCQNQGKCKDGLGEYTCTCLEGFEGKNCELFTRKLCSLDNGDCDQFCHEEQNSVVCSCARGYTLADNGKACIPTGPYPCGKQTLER
S. aureus V8 protease, sequence (P0C1U8 69-336): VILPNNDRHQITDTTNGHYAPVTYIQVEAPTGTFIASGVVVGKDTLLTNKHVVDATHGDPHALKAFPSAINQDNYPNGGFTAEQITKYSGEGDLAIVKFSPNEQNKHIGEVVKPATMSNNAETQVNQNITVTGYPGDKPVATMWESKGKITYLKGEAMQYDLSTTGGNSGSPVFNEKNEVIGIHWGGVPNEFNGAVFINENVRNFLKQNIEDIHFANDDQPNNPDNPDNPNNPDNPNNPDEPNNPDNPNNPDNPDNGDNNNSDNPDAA
T6 sequence (P00747 581-810 limits assumed): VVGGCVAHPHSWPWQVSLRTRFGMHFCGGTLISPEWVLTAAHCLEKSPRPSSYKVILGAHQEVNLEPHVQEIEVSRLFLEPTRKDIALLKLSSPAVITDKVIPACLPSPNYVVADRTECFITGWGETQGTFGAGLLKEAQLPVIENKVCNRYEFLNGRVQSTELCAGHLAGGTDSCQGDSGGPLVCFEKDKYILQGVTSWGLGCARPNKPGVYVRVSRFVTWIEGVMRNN
T6 sequence (P00747 97-580 partner limits assumed): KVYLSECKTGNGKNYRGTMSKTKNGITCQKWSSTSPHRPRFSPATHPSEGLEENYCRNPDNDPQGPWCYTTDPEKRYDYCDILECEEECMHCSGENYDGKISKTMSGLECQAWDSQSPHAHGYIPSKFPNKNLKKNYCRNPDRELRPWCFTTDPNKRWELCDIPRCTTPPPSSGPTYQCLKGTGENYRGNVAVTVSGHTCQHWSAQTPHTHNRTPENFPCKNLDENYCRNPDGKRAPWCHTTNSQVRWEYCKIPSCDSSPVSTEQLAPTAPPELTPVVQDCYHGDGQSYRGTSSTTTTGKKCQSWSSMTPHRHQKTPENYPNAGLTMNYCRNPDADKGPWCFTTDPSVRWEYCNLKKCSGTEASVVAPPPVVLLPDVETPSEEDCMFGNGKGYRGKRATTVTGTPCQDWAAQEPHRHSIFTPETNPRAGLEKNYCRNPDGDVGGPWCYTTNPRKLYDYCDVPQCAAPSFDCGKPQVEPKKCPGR
T8 sequence (P03952 391-638 limits assumed, species assumed): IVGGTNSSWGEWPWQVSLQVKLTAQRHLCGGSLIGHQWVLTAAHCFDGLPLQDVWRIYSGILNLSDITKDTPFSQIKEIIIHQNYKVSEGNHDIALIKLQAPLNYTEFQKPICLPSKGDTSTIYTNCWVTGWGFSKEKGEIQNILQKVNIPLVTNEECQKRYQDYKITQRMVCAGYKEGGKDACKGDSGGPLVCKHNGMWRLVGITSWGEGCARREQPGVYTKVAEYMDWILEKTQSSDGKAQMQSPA
T8 sequence (P03952 20-390 partner limits assumed, species assumed): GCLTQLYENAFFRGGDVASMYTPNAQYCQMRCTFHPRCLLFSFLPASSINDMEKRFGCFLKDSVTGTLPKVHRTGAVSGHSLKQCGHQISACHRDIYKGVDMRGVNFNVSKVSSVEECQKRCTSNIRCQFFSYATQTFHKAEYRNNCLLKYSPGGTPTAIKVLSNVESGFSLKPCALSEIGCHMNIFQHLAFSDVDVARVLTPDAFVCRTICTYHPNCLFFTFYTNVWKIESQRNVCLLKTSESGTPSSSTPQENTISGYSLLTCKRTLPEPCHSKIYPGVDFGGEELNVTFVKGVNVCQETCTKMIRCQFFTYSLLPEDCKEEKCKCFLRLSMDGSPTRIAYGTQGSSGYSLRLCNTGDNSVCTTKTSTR
Factor VIIa, sequence (P08709 213-466 limits assumed): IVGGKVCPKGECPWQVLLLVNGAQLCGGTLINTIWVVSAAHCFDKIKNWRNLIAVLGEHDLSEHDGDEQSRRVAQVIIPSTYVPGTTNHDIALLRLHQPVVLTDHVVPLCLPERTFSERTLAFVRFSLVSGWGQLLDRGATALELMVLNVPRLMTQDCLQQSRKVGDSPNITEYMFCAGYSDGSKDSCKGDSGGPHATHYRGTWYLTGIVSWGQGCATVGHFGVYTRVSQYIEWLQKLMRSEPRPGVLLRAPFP
Factor VIIa, sequence (P08709 61-212 partner limits assumed): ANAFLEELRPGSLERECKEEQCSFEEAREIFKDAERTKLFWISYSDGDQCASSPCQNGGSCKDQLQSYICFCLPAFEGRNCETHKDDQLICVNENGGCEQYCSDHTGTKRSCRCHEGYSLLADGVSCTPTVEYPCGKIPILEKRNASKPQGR
Factor VIIa, sequence (P13726 33-295 partner): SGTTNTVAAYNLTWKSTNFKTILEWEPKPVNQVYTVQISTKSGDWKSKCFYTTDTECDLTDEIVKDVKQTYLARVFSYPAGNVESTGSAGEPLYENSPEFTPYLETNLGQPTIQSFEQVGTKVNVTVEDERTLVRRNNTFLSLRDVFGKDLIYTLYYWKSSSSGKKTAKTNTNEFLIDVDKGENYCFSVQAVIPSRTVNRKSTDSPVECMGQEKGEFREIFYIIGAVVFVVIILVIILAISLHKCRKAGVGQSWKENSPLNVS
T5 sequence (P00772 27-266): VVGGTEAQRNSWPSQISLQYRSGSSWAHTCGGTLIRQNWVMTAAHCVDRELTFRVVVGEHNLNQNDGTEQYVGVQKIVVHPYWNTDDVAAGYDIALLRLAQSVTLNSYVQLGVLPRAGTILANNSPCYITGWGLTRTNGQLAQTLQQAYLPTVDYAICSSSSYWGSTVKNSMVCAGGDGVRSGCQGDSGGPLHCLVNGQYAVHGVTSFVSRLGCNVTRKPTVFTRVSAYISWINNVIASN

TAP-1: 60 amino acid Factor Xa inhibitor protein purified from Ornithodoros moubata tick extracts (YNRLCIKPRDWIDECDSNEGGERAYFRNGKGGCDSFWICPEDHTGADYYSSYRDCFNACI; UniProt P17726 1-60, looked up)
inhibition of Factor VIIa (Factor VIIa): no inhibition | inhibition of thrombin (thrombin): no inhibition | effect of Ca++ on the ability to inhibit Factor Xa (human Factor Xa; inclusion of 1-5 mM Ca++): no effect | Ki (human Factor Xa): 0.58 nM | inhibition of trypsin (trypsin): no inhibition | inhibition of chymotrypsin (chymotrypsin): no inhibition | inhibition of S. aureus V8 protease (S. aureus V8 protease): no inhibition | inhibition of elastase (pancreatic elastase): no inhibition | Clotting Time, Prothrombin Time (Normal Human Plasma [1]; 1.15 pMol TAP-1, Normal Human Plasma): 15.1 s | Clotting Time, Prothrombin Time (Normal Human Plasma [1]; [6]): 28.9 s | Clotting Time, Prothrombin Time (Normal Human Plasma [1]; [7]): 31.2 s | Clotting Time, Prothrombin Time (Normal Human Plasma [1]; [8]): 48.7 s | inhibition of plasmin (plasmin): no inhibition | inhibition of urokinase (urokinase): no inhibition | Clotting Time, Modified Stypven Time (Normal Human Plasma [2]; [6]): 17.7 s | Clotting Time, Modified Stypven Time (Normal Human Plasma [2]; [7]): 31.2 s | Clotting Time, Modified Stypven Time (Normal Human Plasma [2]; [8]): 65.1 s | inhibition of kallikrein (Plasma kallikrein): no inhibition | Clotting Time, Activated Partial Thromboplastin Time (Normal Human Plasma [3]; [6]): 45.2 s | Clotting Time, Activated Partial Thromboplastin Time (Normal Human Plasma [3]; [7]): 57.7 s | Clotting Time, Activated Partial Thromboplastin Time (Normal Human Plasma [3]; [8]): 92.2 s

recombinant TAP-1: TAP-1 expressed from a synthetic gene in S. cerevisiae and purified from broth (YNRLCIKPRDWIDECDSNEGGERAYFRNGKGGCDSFWICPEDHTGADYYSSYRDCFNACI; UniProt P17726 1-60, looked up)
Ki (human Factor Xa): 0.2 nM | Clot formation (normalized clot value) ([4]; i.v. infusion 7 μg/kg/min for 60 minutes): 27.0±7.5% | Clot formation (normalized clot value) ([4]; i.v. infusion 37 μg/kg/min for 60 minutes): 7.9±2.0% | Clot formation (normalized clot value) ([4]; i.v. infusion 64 μg/kg/min for 60 minutes): 1.9±1.0% | effect on prothrombin time (prothrombin time): did not significantly increase | effect on activated partial thromboplastin time [5]: did not significantly increase
